According to US9701707B2, “Methods of synthesizing substituted purine compounds” (Epizyme, Inc., priority 2013, dated 2017):

Columns and labels:
Format in all cases: physicochemical
[1] = Dynamic vapor sorption (DVS) hygroscopicity; details: between 0% and 95% RH, 25° C.
Description: Form A may be observed EP-1. […] (peak temperature) which is accompanied by 5.9 wt % weight loss up to ˜150° C. in the TGA curve (FIG. 3). […] Form A is hygroscopic as indicated by water adsorption of 5.8 wt % at 80% RH measured by dynamic vapor sorption (DVS) (FIG. 4). A solid is considered moderately hygroscopic when water uptake at 25° C./80% RH is between 2-15 wt % based on criteria of European Pharmacopeia.
Form B of EP-1 trihydrate (x is 3) is a trihydrate as confirmed by single crystal analysis. The experimental XRPD pattern of Form B matches well with the simulated one from single crystal data (FIG. 6). This was also confirmed by DSC and TGA data (FIG. 7 and FIG. 8, respectively). DSC data indicates Form B dehydrates at ˜132° C. […] Form B is slightly hygroscopic as evidenced by a weight change of ˜0.3% between 0% and 95% RH (FIG. 9), (data collection was programmed from 95% RH-0% RH-95% RH at a step size of 10% RH at 25° C.).

[2] = Equilibrium solubility in aqueous media; details: for Solubility: LOD 0.1 μg/ml
Description: Approximately 10 mg of Form B was weighed into a 1-ml glass vial followed by addition of 0.5 ml relevant media. Each sample was continuously stirred using a magnetic stir bar at 25° C. for 24 h. The suspension was then filtered using a nylon membrane with a pore diameter of 0.22 μm. The filtrates were diluted for HPLC analysis and final pH was measured. The solid residue of each sample was collected for XRPD analysis.
The solubilities of Form B in water and five different pH values at 25° C. were determined by HPLC after 24 h equilibration. Solubility data for Form B was obtained across the physiological pH by using buffer solutions from pH 2 to pH 10.
Preparation of pH Buffers • pH 2: 0.01N HCl solution. Dilute 1 ml of 1 N HCl with H2O up to a total volume of 100 ml. Measure the pH and precisely adjust to pH=2.00 using a few microliters of 1N HCl or 1N NaOH. • pH 4: 50 mM Na citrate buffer. Prepare a 50 mM citric acid solution by diluting 10 ml of 1N citric acid with H2O up to a total volume of 200 ml. Slowly add solid NaOH under stirring to increase the pH to 3.8-4.0 and use a few microliters of 1N NaOH for final adjustment to pH 4.00. • pH 6: 50 mM Na citrate buffer. Use the same procedure as the pH 4 buffer and adjust to pH=6.00 • pH 8: 50 mM Na phosphate buffer. Prepare a 50 mM NaH2PO4 solution by dissolving 6.00 g NaH2PO4 in 1 L of H2O and a 50 mM Na2HPO4 solution by dissolving 7.10 g in 1 L of H2O. Mix 10 ml of the NaH2PO4 solution with 140 ml of the Na2HPO4 solution in a beaker. Adjust to pH 8.00 by addition of small amounts of 50 mM NaH2PO4 or Na2HPO4 solution. • pH 10: 50 mM Na carbonate buffer. Prepare a 50 mM carbonate solution by dissolving 840 mg of sodium bicarbonate (NaHCO3) in about 180 ml of H2O. Slowly adjust the pH to 10.0±0.1 by addition of 1N NaOH. Add water to reach the total volume of 200 ml and adjust to pH 10.00 with 1N NaOH.

[3] = Solid-state photostability
Description: The solid-state photostability of EP-1 trihydrate (x is 3) was assessed upon exposure to UV/Vis light according to ICH guidelines. Loss of claim %, loss of area %, and degradates were evaluated versus dark control samples.
Solid-State Photostability: Weighed ˜5 mg Form B into glass vials with 2 vials covered with foil as the controls. Put these 2 samples with their controls into chamber and expose them to Vis (10 Kilo lux) for 120 hrs followed by UV (10 W/m^2) for 20 hrs (per ICH guidelines). At the end of Vis, take 1 sample and 1 control out for analysis and the others were taken out after both Vis and UV exposure.

Solution photostability = test: Solution photostability
Description: Solution Photostability: Weighed ˜1 mg of Form B and dissolved in 3 solutions at different pHs (0.01 N HCl, 0.01 N NaOH and water). Methanol was added as a co-solvent to dissolve Form B in solutions (i.e., 10% (v/v) methanol in 0.01 N HCl, 20% (v/v) in water and 30% (v/v) in 0.01 N NaOH), the final concentration was 0.1 mg/mL. For each solution, 1 sample and 1 control covered in foil were put into the photo chamber for Vis study (2 vials total for each solution). Measure the concentration and monitor the degradation.

[4] = Bulk control (covered with foil), Vis Stability (1.2 Mil lux-hours)
[5] = Bulk control (covered with foil), Vis-UV stability (1.2 Mil lux-hours + 200 Watt-hours/m^2)
[6] = Bulk, Vis Stability (1.2 Mil lux-hours)
[7] = Bulk, Vis-UV stability (1.2 Mil lux-hours + 200 Watt-hours/m^2)
[8] = 0.01N HCl Dark, Vis Stability (1.2 Mil lux-hours), final pH 2.1
[9] = 0.01N HCl Dark, Vis-UV Stability (1.2 Mil lux-hours + 200 Watt-hours/m^2), final pH 2.1
[10] = 0.01N HCl Light, Vis Stability (1.2 Mil lux-hours), final pH 2.1
[11] = 0.01N HCl Light, Vis-UV Stability (1.2 Mil lux-hours + 200 Watt-hours/m^2), final pH 2.1
[12] = 0.01N NaOH Dark, Vis Stability (1.2 Mil lux-hours), final pH 11.6, precipitation observed
[13] = 0.01N NaOH Dark, Vis-UV Stability (1.2 Mil lux-hours + 200 Watt-hours/m^2), final pH 11.7, precipitation observed
[14] = 0.01N NaOH Light, Vis Stability (1.2 Mil lux-hours), final pH 11.7, precipitation observed
[15] = 0.01N NaOH Light, Vis-UV Stability (1.2 Mil lux-hours + 200 Watt-hours/m^2), final pH 11.7, precipitation observed
[16] = H2O Dark, Vis Stability (1.2 Mil lux-hours), final pH 7.7
[17] = H2O Dark, Vis-UV Stability (1.2 Mil lux-hours + 200 Watt-hours/m^2), final pH 8.1
[18] = H2O Light, Vis Stability (1.2 Mil lux-hours), final pH 7.3
[19] = H2O Light, Vis-UV Stability (1.2 Mil lux-hours + 200 Watt-hours/m^2), final pH 7.3

SMILES: CC(C)N(C[C@H]1O[C@@H](n2cnc3c(N)ncnc32)[C@H](O)[C@@H]1O)[C@H]1C[C@@H](CCc2nc3cc(C(C)(C)C)ccc3[nH]2)C1 [Form B, (2R,3R,4S,5R)-2-(6-amino-9H-purin-9-yl)-5-((((1r,3S)-3-(2-(5-(tert-butyl)-1H-benzo[d]imidazol-2-yl)ethyl)cyclobutyl)(isopropyl)amino)methyl)tetrahydrofuran-3,4-diol trihydrate]
- weight change [1]: ~0.3%
- Solubility ([2]; 50 mM Na carbonate buffer, pH (initial) 10.0, pH (final) 10.0, RT, 24 h): <LOD
- Solubility ([2]; 50 mM Na phosphate buffer, pH (initial) 8.0, pH (final) 8.0, RT, 24 h): <LOD^§
- solubility at 24 h ([2]; 50 mM sodium citrate buffer, 25 °C, pH 6, aqueous buffer, thermodynamic from solid, 50 mM sodium citrate, pH (initial) 6.0, pH (final) 6.0, RT): 80 µg/mL
- Remaining Solid ([2]; Water, RT, 24 h, XRPD): Form B
- % area (100% − TRS%) [3, 4]: 99.7%
- % claim (Cs/Ci × 100%) [3, 4]: 100.0%
- % area (100% − TRS%) [3, 5]: 99.8%
- % claim (Cs/Ci × 100%) [3, 5]: 100.0%
- % area (100% − TRS%) [3, 6]: 99.8%
- % claim (Cs/Ci × 100%) [3, 6]: 101.1%
- % area (100% − TRS%) [3, 7]: 99.8%
- % claim (Cs/Ci × 100%) [3, 7]: 99.6%
- solid-state photostability ([3]; exposure to full ICH photostability requirement, versus dark control): stable
- % area (100% − TRS%) (Solution photostability; [8]): 99.4%
- % claim (Cs/Ci × 100%) (Solution photostability; [8]): 100.0%
- % area (100% − TRS%) (Solution photostability; [9]): 99.9%
- % claim (Cs/Ci × 100%) (Solution photostability; [9]): 100.0%
- % area (100% − TRS%) (Solution photostability; [10]): 98.5%
- % claim (Cs/Ci × 100%) (Solution photostability; [10]): 98.8%
- % area (100% − TRS%) (Solution photostability; [11]): 99.9%
- % claim (Cs/Ci × 100%) (Solution photostability; [11]): 99.9%
- % area (100% − TRS%) (Solution photostability; [12]): 99.7%
- % claim (Cs/Ci × 100%) (Solution photostability; [12]): 100.0%
- % area (100% − TRS%) (Solution photostability; [13]): 100.0%
- % claim (Cs/Ci × 100%) (Solution photostability; [13]): 100.0%
- % area (100% − TRS%) (Solution photostability; [14]): 99.6%
- % claim (Cs/Ci × 100%) (Solution photostability; [14]): 44.5%
- % area (100% − TRS%) (Solution photostability; [15]): 99.3%
- % claim (Cs/Ci × 100%) (Solution photostability; [15]): 66.3%
- % area (100% − TRS%) (Solution photostability; [16]): 100.0%
- % claim (Cs/Ci × 100%) (Solution photostability; [16]): 100.0%
- % area (100% − TRS%) (Solution photostability; [17]): 100.0%
- % claim (Cs/Ci × 100%) (Solution photostability; [17]): 100.0%
- % area (100% − TRS%) (Solution photostability; [18]): 99.6%
- % claim (Cs/Ci × 100%) (Solution photostability; [18]): 98.5%
- % area (100% − TRS%) (Solution photostability; [19]): 99.3%
- % claim (Cs/Ci × 100%) (Solution photostability; [19]): 94.7%
- solution photostability (Solution photostability; in water and 0.01N HCl solution, exposure to UV/Vis): stable
